Measured values: patent US7569567B2, “3-Heteroaryl-3,5-dihydro-4-oxo-4H-pyridazino[4,5-B]indole-1-carboxamide derivatives, their preparation and therapeutic use” (sanofi-aventis, priority 2001, dated 2009)

| Structure (SMILES) | melting point |
| --- | --- |
| CN(C)C(=O)c1nn(-c2cccnc2)c(=O)c2c1c1ccc(Cl)cc1n2C.Cl | 228 to 230 °C |
| CN(C)C(=O)c1nn(-c2ccncc2)c(=O)c2c1c1ccc(Cl)cc1n2C.Cl | 263 to 265 °C |
| CN(C)C(=O)c1nn(-c2ccncc2)c(=O)c2c1c1ccc(F)cc1n2C.Cl | 266 to 271 °C |
| COc1ccc(-n2nc(C(=O)N(C)C)c3c4ccc(F)cc4n(C)c3c2=O)cn1 [Compound 4, 7-fluoro-N,N,5-trimethyl-4-oxo-3-(2-methoxypyridin-5-yl)-3,5-dihydro-4H-pyridazino[4,5-b]indole-1-carboxamide] | 225 to 226 °C |
| CN(C)C(=O)c1nn(-c2cnc3ccccc3c2)c(=O)c2c1c1ccc(F)cc1n2C [Compound 5, 7-fluoro-N,N,5-trimethyl-4-oxo-3-(quinolin-3-yl)-3,5-dihydro-4H-pyridazino[4,5-b]indole-1-carboxamide] | 237 to 238 °C |
| CN(C)C(=O)c1nn(-c2ccccn2)c(=O)c2c1c1ccc(Cl)cc1n2C [Compound 11, 7-chloro-N,N,5-trimethyl-4-oxo-3-(pyridin-2-yl)-3,5-dihydro-4H-pyridazino[4,5-b]indole-1-carboxamide] | 210 to 211 °C |
| CN(C)C(=O)c1nn(-c2ccncc2)c(=O)c2c1c1ccc(Cl)cc1n2C [Compound 13, 7-chloro-N,N,5-trimethyl-4-oxo-3-(pyridin-4-yl)-3,5-dihydro-4H-pyridazino[4,5-b]indole-1-carboxamide] | 276 to 278 °C |
| Cc1ccc(-n2nc(C(=O)N(C)C)c3c4ccc(Cl)cc4n(C)c3c2=O)nc1 [Compound 15, 7-chloro-N,N,5-trimethyl-4-oxo-3-(5-methylpyridin-2-yl)-3,5-dihydro-4H-pyridazino[4,5-b]indole-1-carboxamide] | 222 to 224 °C |
| COc1ccc(-n2nc(C(=O)N(C)C)c3c4ccc(Cl)cc4n(C)c3c2=O)cn1 [Compound 16, 7-chloro-N,N,5-trimethyl-4-oxo-3-(2-methoxypyridin-5-yl)-3,5-dihydro-4H-pyridazino[4,5-b]indole-1-carboxamide] | 236 to 237 °C |
| Cc1ccc(-n2nc(C(=O)N(C)C)c3c4ccc(Cl)cc4n(C)c3c2=O)cn1 [Compound 17, 7-chloro-N,N,5-trimethyl-4-oxo-3-(2-methylpyridin-5-yl)-3,5-dihydro-4H-pyridazino[4,5-b]indole-1-carboxamide] | 214 to 216 °C |
| CN(C)C(=O)c1nn(-c2ccc(Br)nc2)c(=O)c2c1c1ccc(Cl)cc1n2C [Compound 18, 7-chloro-N,N,5-trimethyl-4-oxo-3-(2-bromopyridin-5-yl)-3,5-dihydro-4H-pyridazino[4,5-b]indole-1-carboxamide] | 250 to 252 °C |
| CN(C)C(=O)c1nn(-c2cnc3ccccc3c2)c(=O)c2c1c1ccc(Cl)cc1n2C [Compound 19, 7-chloro-N,N,5-trimethyl-4-oxo-3-(quinolin-3-yl)-3,5-dihydro-4H-pyridazino[4,5-b]indole-1-carboxamide] | 271 to 272 °C |
| CN(C)C(=O)c1nn(-c2cncc3ccccc23)c(=O)c2c1c1ccc(Cl)cc1n2C [Compound 20, 7-chloro-N,N,5-trimethyl-4-oxo-3-(isoquinolin-4-yl)-3,5-dihydro-4H-pyridazino[4,5-b]indole-1-carboxamide] | 189 to 191 °C |
| Cc1ccc(-n2nc(C(=O)N(C)C)c3c4ccc(Cl)cc4n(C)c3c2=O)nn1 [Compound 21, 7-chloro-N,N,5-trimethyl-4-oxo-3-(6-methyl-pyridazin-3-yl)-3,5-dihydro-4H-pyridazino[4,5-b]indole-1-carboxamide] | 238 to 239 °C |
| CN(C)C(=O)c1nn(-c2cncnc2)c(=O)c2c1c1ccc(Cl)cc1n2C [Compound 22, 7-chloro-N,N,5-trimethyl-4-oxo-3-(pyrimidin-5-yl)-3,5-dihydro-4H-pyridazino[4,5-b]indole-1-carboxamide] | 251 to 252 °C |
| CN(C)C(=O)c1nn(-c2cnccn2)c(=O)c2c1c1ccc(Cl)cc1n2C [Compound 24, 7-chloro-N,N,5-trimethyl-4-oxo-3-(pyrazin-2-yl)-3,5-dihydro-4H-pyridazino[4,5-b]indole-1-carboxamide] | 231 to 232 °C |
| CNC(=O)c1nn(-c2ccncc2)c(=O)c2c1c1ccc(Cl)cc1n2C [Compound 28, 7-chloro-N,5-dimethyl-4-oxo-3-(pyridin-4-yl)-3,5-dihydro-4H-pyridazino[4,5-b]indole-1-carboxamide] | 321 to 323 °C |
| Cn1c2cc(Cl)ccc2c2c(C(N)=O)nn(-c3ccncc3)c(=O)c21 [Compound 29, 7-chloro-5-methyl-4-oxo-3-(pyridin-4-yl)-3,5-dihydro-4H-pyridazino[4,5-b]indole-1-carboxamide] | 341 to 346 °C |
| COc1ccnc(-n2nc(C(=O)N(C)C)c3c4ccc(Cl)cc4n(C)c3c2=O)c1 [Compound 30, 7-chloro-N,N,5-trimethyl-4-oxo-3-(4-methoxypyridin-2-yl)-3,5-dihydro-4H-pyridazino[4,5-b]indole-1-carboxamide] | 243 to 244 °C |
| CCN(C)C(=O)c1nn(-c2ccncc2)c(=O)c2c1c1ccc(Cl)cc1n2C [Compound 33, 7-chloro-N-ethyl-N,5-dimethyl-4-oxo-3-(pyridin-4-yl)-3,5-dihydro-4H-pyridazino[4,5-b]indole-1-carboxamide] | 211 to 213 °C |
| Cc1cc(-n2nc(C(=O)N(C)C)c3c4ccc(Cl)cc4n(C)c3c2=O)ccn1 [Compound 35, 7-chloro-N,N,5-trimethyl-4-oxo-3-(2-methylpyridin-4-yl)-3,5-dihydro-4H-pyridazino[4,5-b]indole-1-carboxamide] | 267 to 269 °C |
| CN(C)C(=O)c1nn(-c2cc[n+]([O-])cc2)c(=O)c2c1c1ccc(Cl)cc1n2C [Compound 37, 7-chloro-N,N,5-trimethyl-3-(1-oxidopyridin-4-yl)-4-oxo-3,5-dihydro-4H-pyridazino[4,5-b]indole-1-carboxamide] | 301 to 304 °C |
| COc1cc(-n2nc(C(=O)N(C)C)c3c4ccc(Cl)cc4n(C)c3c2=O)ccn1 [Compound 38, 7-chloro-3-(2-methoxypyridin-4-yl)-N,N,5-trimethyl-4-oxo-3,5-dihydro-4H-pyridazino[4,5-b]indole-1-carboxamide] | 237 to 238 °C |

Second part, the compound after the results:

| melting point | Structure (SMILES) |
| --- | --- |
| 232 to 234 °C | Cl.Cn1c2cc(Cl)ccc2c2c(C(=O)N3CCCC3)nn(-c3cccnc3)c(=O)c21 |
| 267 to 268 °C | CN1CCN(C(=O)c2nn(-c3cccnc3)c(=O)c3c2c2ccc(Cl)cc2n3C)CC1.Cl |
| 269 to 273 °C | CN1CCN(C(=O)c2nn(-c3cccnc3)c(=O)c3c2c2ccc(F)cc2n3C)CC1.Cl |
| 199 to 200 °C | CN(C)C(=O)c1nn(-c2ccccn2)c(=O)c2c1c1ccc(F)cc1n2C [Compound 1, 7-fluoro-N,N,5-trimethyl-4-oxo-3-(pyridin-2-yl)-3,5-dihydro-4H-pyridazino[4,5-b]indole-1-carboxamide] |
| 220 to 221 °C | CN(C)C(=O)c1nn(-c2cccnc2)c(=O)c2c1c1ccc(F)cc1n2C [Compound 2, 7-fluoro-N,N,5-trimethyl-4-oxo-3-(pyridin-3-yl)-3,5-dihydro-4H-pyridazino[4,5-b]indole-1-carboxamide] |
| 238 to 239 °C | Cn1c2cc(F)ccc2c2c(C(=O)N3CCCC3)nn(-c3ncccn3)c(=O)c21 [Compound 6, 1-[[7-fluoro-5-methyl-3-(pyrimidin-2-yl)-4-oxo-3,5-dihydro-4H-pyridazino[4,5-b]indol-1-yl]carbonyl]-pyrrolidine] |
| 220 to 221 °C | Cn1c2cc(F)ccc2c2c(C(=O)N3CCCC3)nn(-c3cccnc3)c(=O)c21 [Compound 8, 1-[[7-fluoro-5-methyl-3-(pyridin-3-yl)-4-oxo-3,5-dihydro-4H-pyridazino[4,5-b]indol-1-yl]carbonyl]-pyrrolidine] |
| 270 to 272 °C | CNC(=O)c1nn(-c2cccnc2)c(=O)c2c1c1ccc(F)cc1n2C [Compound 9, 7-fluoro-N,5-dimethyl-4-oxo-3-(pyridin-3-yl)-3,5-dihydro-4H-pyridazino[4,5-b]indole-1-carboxamide] |
| 319 to 320 °C | Cn1c2cc(F)ccc2c2c(C(N)=O)nn(-c3cccnc3)c(=O)c21 [Compound 10, 7-fluoro-5-methyl-4-oxo-3-(pyridin-3-yl)-3,5-dihydro-4H-pyridazino[4,5-b]indole-1-carboxamide] |
| 272 to 274 °C | CN(C)C(=O)c1nn(-c2ncccn2)c(=O)c2c1c1ccc(Cl)cc1n2C [Compound 23, 7-chloro-N,N,5-trimethyl-4-oxo-3-(pyrimidin-2-yl)-3,5-dihydro-4H-pyridazino[4,5-b]indole-1-carboxamide] |
| 236 to 237 °C | Cn1c2cc(Cl)ccc2c2c(C(=O)N3CCCC3)nn(-c3ccncc3)c(=O)c21 [Compound 27, 1-[[7-chloro-5-methyl-3-(pyridin-4-yl)-4-oxo-3,5-dihydro-4H-pyridazino[4,5-b]indol-1-yl]carbonyl]-pyrrolidine] |
| 242 to 243 °C | Cn1c2cc(Cl)ccc2c2c(C(=O)N3CCCCC3)nn(-c3ccncc3)c(=O)c21 [Compound 34, 1-[[7-chloro-5-methyl-3-(pyridin-4-yl)-4-oxo-3,5-dihydro-4H-pyridazino[4,5-b]indol-1-yl]carbonyl]-piperidine] |
| 246 to 247 °C | Cc1cc(-n2nc(C(=O)N3CCCC3)c3c4ccc(Cl)cc4n(C)c3c2=O)ccn1 [Compound 36, 1-[[7-chloro-5-methyl-3-(2-methylpyridin-4-yl)-4-oxo-3,5-dihydro-4H-pyridazino[4,5-b]indol-1-yl]carbonyl]pyrrolidine] |
